Laboratory results taken from patent US12427179B2, “Compositions and methods for diagnosis and treatment of neurodegenerative diseases” (EPITRACKER, INC., priority 2019, dated 2025).

What was measured:
[1] = system: SAg: Venular endothelial cells, peripheral blood mononuclear cells (TCR ligands); assay: BioMAP SAg system; format: cell-based, human
Method: (§1) Anti-inflammatory phenotypic profiling was conducted across 12 human primary cell-based systems as part of DiscoverX's BioMAP Diversity Plus program. These systems are designed to model complex human tissue and disease biology of the vasculature, skin, lung, and inflammatory tissues. Quantitative measurements of biomarker activities across this broad panel were used to assess each biochemical's anti-inflammatory activity at four concentrations ([…] and 2.2, 6.7 and 20 μM). […] Protein-based biomarkers from activated cell systems were measured and compared with controls. Biomarker activities were annotated when 2 or more consecutive concentrations change in the same directions relative to vehicle controls, were outside of the significance envelope and had at least one concentration with an effect size>20% (log 10 ratio)>0.1.
In this system, human primary peripheral blood mononuclear cells and human umbilical vein endothelial cells were stimulated with T-cell receptor ligands and incubated with the test agent, drug control, or vehicle control for 24 hours. A negative, non-stimulated system was also included. […] This antiproliferative activity was lost at higher concentrations (20 μM). In this system, T cell proliferation is considered a critical event driving an inflammatory response.
(§2) The Diversity PLUS panel allows test agent characterization in an unbiased way across a broad set of systems modeling various human disease states. These systems are designed to model complex human tissue and disease biology of the vasculature, skin, lung, and inflammatory tissues. Quantitative measurements of 148 biomarker activities across this broad panel, along with comparative analysis of biological activities from known bioactive agents, were used to predict and compare the efficacy and function of each selected compound at selected concentrations (6.7 and/or 20 μM). […]
(§3) Each test agent generates a signature BioMAP profile that is created from the changes in protein biomarker readouts within individual system environments. Biomarker readouts (7-17 per system) are selected for therapeutic and biological relevance, are predictive for disease outcomes or specific drug effects and are validated using agents with known mechanism of action (MoA). Each readout is measured quantitatively by immune-based methods that detect protein (e.g., ELISA) or functional assays that measure proliferation and viability. BioMAP readouts are diverse and include cell surface receptors, cytokines, chemokines, matrix molecules and enzymes. In total, the Diversity PLUS panel contains 148 biomarker readouts that capture biological changes that occur within the physiological context of the particular BioMAP system. […]

[2] = white powder; cited from earlier work
[3] = system: KF3CT: Keratinocytes, dermal fibroblasts; assay: BioMAP KF3CT system; format: cell-based, human; settings: at the compound's active concentration
Description: as §2
as §3, with “enzymes.” for “enzymes. In total, the Diversity PLUS panel contains 148 biomarker readouts that capture biological changes that occur within the physiological context of the particular BioMAP system.”

[4] = system: HDF3CGF: Dermal fibroblasts; assay: BioMAP HDF3CGF system; format: cell-based, human; settings: at the compound's active concentration
Description: (§4) The Diversity PLUS panel allows test agent characterization in an unbiased way across a broad set of systems modeling various human disease states. These systems are designed to model complex human tissue and disease biology of the vasculature, skin, lung, and inflammatory tissues. Quantitative measurements of 148 biomarker activities across this broad panel, along with comparative analysis of biological activities from known bioactive agents, were used to predict and compare the efficacy and function of each selected compound at selected concentrations (6.7 and/or 20 μM).
(§5) BioMAP systems are constructed with one or more primary cell types from healthy human donors, with stimuli (such as cytokines or growth factors) added to capture relevant signaling networks that naturally occur in human tissue or pathological conditions. Vascular biology is modeled in both a Th1 (3C system) and a Th2 (4H system) inflammatory environment, as well as in a Th1 inflammatory state specific to arterial smooth muscle cells (CASM3C system). Additional systems recapitulate aspects of the systemic immune response including monocyte-driven Th1 inflammation (LPS system) or T cell stimulation (SAg system), chronic Th1 inflammation driven by macrophage activation (lMphg system) and the T cell-dependent activation of B cells that occurs in germinal centers (BT system). The BE3C system (Th1) and the BF4T system (Th2) represent airway inflammation of the lung, while the MyoF system models myofibroblast-lung tissue remodeling. Lastly, skin biology is addressed in the KF3CT system modeling Th1 cutaneous inflammation and the HDF3CGF system modeling wound healing.
Each test agent generates a signature BioMAP profile that is created from the changes in protein biomarker readouts within individual system environments. Biomarker readouts (7-17 per system) are selected for therapeutic and biological relevance, are predictive for disease outcomes or specific drug effects and are validated using agents with known mechanism of action (MoA). Each readout is measured quantitatively by immune-based methods that detect protein (e.g., ELISA) or functional assays that measure proliferation and viability. BioMAP readouts are diverse and include cell surface receptors, cytokines, chemokines, matrix molecules and enzymes. In total, the Diversity PLUS panel contains 148 biomarker readouts that capture biological changes that occur within the physiological context of the particular BioMAP system. Specific BioMAP activities have been correlated to in vivo biology, and multiparameter BioMAP profiles have been used to distinguish compounds based on MoA and target selectivity across diverse physiological systems.
(§6) Activated BioMAP systems were incubated with each compound for 24 to 72 hours. Protein-based biomarkers from activated cell systems were measured and compared with non-treated control systems.

[5] = system: BE3C: Bronchial epithelial cells (IL-1β, IFNγ, TNFα); assay: BioMAP BE3C system; format: cell-based, human; settings: at the compound's active concentration
Description: The Diversity PLUS panel allows test agent characterization in an unbiased way across a broad set of systems modeling various human disease states. These systems are designed to model complex human tissue and disease biology of the vasculature, skin, lung, and inflammatory tissues.
as §5
Each test agent generates a signature BioMAP profile that is created from the changes in protein biomarker readouts within individual system environments. Biomarker readouts (7-17 per system) are selected for therapeutic and biological relevance, are predictive for disease outcomes or specific drug effects and are validated using agents with known mechanism of action (MoA). Each readout is measured quantitatively by immune-based methods that detect protein (e.g., ELISA) or functional assays that measure proliferation and viability. BioMAP readouts are diverse and include cell surface receptors, cytokines, chemokines, matrix molecules and enzymes.
as §6

[6] = system: MyoF: Lung fibroblasts (TGFβ, TNFα); assay: BioMAP MyoF system; format: cell-based, human; settings: at the compound's active concentration
Description: as §4, §5, §3, §6

[7] = system: human primary cell-based systems; assay: BioMAP Diversity PLUS panel, phenotypic profiling; settings: tested at 6.7 and/or 20 μM; 24 to 72 hours
Method: Anti-inflammatory phenotypic profiling was conducted across 12 human primary cell-based systems as part of DiscoverX's BioMAP Diversity Plus program. These systems are designed to model complex human tissue and disease biology of the vasculature, skin, lung, and inflammatory tissues. Quantitative measurements of biomarker activities across this broad panel were used to assess each biochemical's anti-inflammatory activity at four concentrations ([…] and 2.2, 6.7 and 20 μM). […] Protein-based biomarkers from activated cell systems were measured and compared with controls.
as §4, §5
Each test agent generates a signature BioMAP profile that is created from the changes in protein biomarker readouts within individual system environments. Biomarker readouts (7-17 per system) are selected for therapeutic and biological relevance, are predictive for disease outcomes or specific drug effects and are validated using agents with known mechanism of action (MoA). Each readout is measured quantitatively by immune-based methods that detect protein (e.g., ELISA) or functional assays that measure proliferation and viability. BioMAP readouts are diverse and include cell surface receptors, cytokines, chemokines, matrix molecules and enzymes. In total, the Diversity PLUS panel contains 148 biomarker readouts that capture biological changes that occur within the physiological context of the particular BioMAP system.
as §6

[8] = system: BT: Peripheral blood mononuclear cells, B cells (α-IgM, TCR ligands); assay: BioMAP BT system; format: cell-based, human; settings: BT system; at the compound's active concentration
Method: as §1
In the first system, human primary peripheral blood mononuclear cells and venular endothelial cells were stimulated with lipopolysaccharide (LPS) and incubated with the test agent, drug control, or vehicle control for 24 hours. In the second system, peripheral blood mononuclear cells and B cells were stimulated with α-IgM and T cell receptor ligands and incubated with the test agent, drug control, or vehicle control for 24 hours. In both systems, a negative, non-stimulated system was also included.
as §4, §5, §3

N[C@@H](CC(O)C(=O)O)C(=O)O (some centres unmarked) [4-hydroxyglutamate]
T cell antiproliferative activity ([1]; higher concentrations (20 μM), 24 hours): lost | Stability of the pure powder [2]: stable at room temperature

Nc1ncnc2c1ncn2[C@@H]1O[C@H](CSCC[C@H](N)C(=O)O)[C@@H](O)[C@H]1O [S-adenosylhomocysteine (SAH), S-adenosylhomocysteine]
MMP-9, log10 reduction vs nontreated controls [3]: −0.10 log10 | PAI-1, log10 reduction vs nontreated controls [3]: −0.28 log10 | T cell proliferation, log10 reduction vs nontreated controls ([1]; SAg system, at the compound's active concentration): −0.21 log10 | CXCL10, log10 reduction vs nontreated controls [4]: −0.19 log10 | CXCL11, log10 reduction vs nontreated controls [4]: −0.25 log10 | Collagen III, log10 reduction vs nontreated controls [4]: −0.21 log10 | Fibroblast proliferation, log10 reduction vs nontreated controls [4]: −1.10 log10 | M-CSF, log10 reduction vs nontreated controls [4]: −0.19 log10 | MCP-1, log10 reduction vs nontreated controls [4]: −0.14 log10 | TIMP-1, log10 reduction vs nontreated controls [4]: −0.14 log10 | VCAM-1, log10 reduction vs nontreated controls [4]: −0.17 log10 | CXCL11, log10 reduction vs nontreated controls [5]: −0.13 log10 | HLA-DR, log10 reduction vs nontreated controls [5]: −0.13 log10 | IL-8, log10 reduction vs nontreated controls [5]: −0.13 log10 | MMP-9, log10 reduction vs nontreated controls [5]: −0.24 log10 | Alpha-SM actin, log10 reduction vs nontreated controls [6]: −0.18 log10 | Collagen I, log10 reduction vs nontreated controls [6]: −0.15 log10 | Collagen III, log10 reduction vs nontreated controls [6]: −0.27 log10 | VCAM-1, log10 reduction vs nontreated controls [6]: −0.12 log10 | Active concentrations [7]: 20 µM | Secreted IgG, log10 reduction vs nontreated controls [8]: −0.29 log10
